Values joined by “and” are separate entries in the source; they are usually repeats but may differ in a detail not shown here. Equal values may be shown once.
Assays:
[1] = test system: formalin-induced pain behaviors in the rat; test: Formalin-induced pain test (formalin model), duration of pain behaviors; format: in vivo
Method: Exemplary compounds of the invention were tested in the formalin-induced pain test reported by Dubuisson et al., Pain 1977 December; 4(2):161-74 (incorporated herein by reference in its entirety). Briefly, dilute formalin (50 μL of 3% formalin) was injected into the plantar surface of the hind paw of a rat. […] The individual responsible for counting the pain behaviors in a particular study was blinded to the treatment groups.
The initial phase (Phase I: 0-5 min) is thought to have a significant component that is dependent upon direct activation of afferent fibers by formalin and functional TRPA1 (McNamara et al., 2007).
Investigators studied oral administration of compounds of the invention at the doses presented in Table 3 on pain behaviors in the formalin model in the rat. Compounds were formulated as solutions in water with various solvents and excipients including dimethyl sulfoxide (DMSO), polyethylene glycol (15)-hydroxystearate (Solutol®, Sigma-Aldrich), caprylocaproyl macrogol-8 glyceride (Labrasol®, Sigma-Aldrich), polysorbate-80 (Tween®-80, Sigma-Aldrich), and polyoxyl 35 castor oil (Cremophor® EL, BASF Corp.); or suspensions in methylcellulose as indicated in Table 3. Animals were dosed orally with the vehicle, or compounds of the invention one hour prior to intraplantar formalin. […] A decrease over Vehicle indicates a positive result. P values, when indicated, indicate significance compared Vehicle.

[2] = test system: CFA-induced cold hypersensitivity of the hind paw; test: CFA-induced pain test, cold hypersensitivity (cold plate paw withdrawal latency); format: in vivo; conditions: cold plate 1° C., solution in 4% DMSO, 5% Tween-80; for Average PWL Post-Treatment / PWL Change: 1-2 hour pre-treatment; for Average PWL Post-CFA: baseline before dosing
Method: Embodiments of the invention may be efficacious in the treatment of inflammatory pain. Compounds of the invention were tested by the CFA-induced pain test method. Compounds were formulated as solutions in water with various solvents and excipients including dimethyl sulfoxide (DMSO), polyethylene glycol (15)-hydroxystearate (Solutol®, Sigma-Aldrich), caprylocaproyl macrogol-8 glyceride (Labrasol®, Sigma-Aldrich), polysorbate-80 (Tween®-80, Sigma-Aldrich), and polyoxyl 35 castor oil (Cremophor® EL, BASF Corp.); or suspensions in methylcellulose as indicated in Table 3 for oral delivery. Briefly, the hind paw was sensitized to cold temperature (allodynic) by administering 0.1 mL of Complete Freund's Adjuvant (CFA) to the right hind paw. Three days later, the time taken for the animal to lift its CFA-injected paw was recorded compared to its un-injected normal left hind paw. […] To avoid tissue damage the maximum cut-off time was 5 minutes. Animals that were allodynic (average PWL to the first three pain behaviors <150 seconds for the CFA-injected hind paw: ˜≥50% difference between the normal and CFA-injected paw) were included in the study and subsequently randomized across treatment groups. The following day, the animals were dosed orally under blinded conditions. Following the 1-2 hour pre-treatment time, the post-dose PWL readings were again taken. The efficacy of the drug treatment was assessed by comparing the PWL in the drug treatment animals to those animals that receive the vehicle. P values, when indicated, indicate significance compared Vehicle.

human TRPA1 = human TRPA1 (Homo sapiens (Human), UniProt O75762); test: In vitro inhibition of human TRPA1, whole cell patch configuration; format: cell-based; conditions: current activation 10 μM AITC, tested concentrations 320 pM to 3.2 μM, read-out: hTRPA1 IC50
Chain of human TRPA1 (O75762 whole entry, the tested form may be a part): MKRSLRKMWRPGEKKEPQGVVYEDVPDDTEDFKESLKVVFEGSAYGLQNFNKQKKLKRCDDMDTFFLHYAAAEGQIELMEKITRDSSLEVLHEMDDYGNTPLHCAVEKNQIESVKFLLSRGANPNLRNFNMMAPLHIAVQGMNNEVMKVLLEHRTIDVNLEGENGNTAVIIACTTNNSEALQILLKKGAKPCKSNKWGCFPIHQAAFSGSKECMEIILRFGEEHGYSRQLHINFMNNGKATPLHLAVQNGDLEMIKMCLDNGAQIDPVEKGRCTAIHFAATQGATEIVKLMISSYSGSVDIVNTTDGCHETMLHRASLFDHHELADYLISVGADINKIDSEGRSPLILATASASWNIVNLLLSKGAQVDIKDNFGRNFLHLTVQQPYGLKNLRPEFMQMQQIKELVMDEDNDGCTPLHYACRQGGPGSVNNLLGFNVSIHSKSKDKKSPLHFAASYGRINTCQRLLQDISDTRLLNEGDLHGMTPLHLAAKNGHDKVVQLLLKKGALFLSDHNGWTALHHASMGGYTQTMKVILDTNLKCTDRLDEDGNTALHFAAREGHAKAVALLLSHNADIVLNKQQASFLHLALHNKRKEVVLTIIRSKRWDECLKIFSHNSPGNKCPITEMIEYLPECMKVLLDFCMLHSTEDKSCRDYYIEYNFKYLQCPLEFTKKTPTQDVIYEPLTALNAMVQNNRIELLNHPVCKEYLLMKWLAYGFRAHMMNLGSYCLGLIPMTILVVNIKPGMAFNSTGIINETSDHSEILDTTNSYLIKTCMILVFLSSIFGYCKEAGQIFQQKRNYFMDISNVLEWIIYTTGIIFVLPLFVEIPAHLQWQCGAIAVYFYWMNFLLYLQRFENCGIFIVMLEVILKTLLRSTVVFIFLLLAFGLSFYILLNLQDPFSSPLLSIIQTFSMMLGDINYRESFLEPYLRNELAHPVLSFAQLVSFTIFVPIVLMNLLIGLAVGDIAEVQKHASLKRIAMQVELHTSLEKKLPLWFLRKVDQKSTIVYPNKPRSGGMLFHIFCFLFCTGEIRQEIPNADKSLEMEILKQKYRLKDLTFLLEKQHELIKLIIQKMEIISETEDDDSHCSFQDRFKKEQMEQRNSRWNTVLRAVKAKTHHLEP
In short: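 Whole-cell patch clamp, bath 150 mM NaCl, 10 mM HEPES, 1 mM EGTA, 3 mM MgCl2, pH 7.4 (sometimes 2 mM CaCl2, 1 mM MgCl2). Currents recorded continuously at −60 mV or by 400 ms ramps from −40 mV holding every 4 s; inward/outward currents taken at −80/80 mV, with controlled-temperature focal perfusion.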

[3] = 1 mg/kg PO one hour prior to formalin, solution in 4% DMSO, 5% Tween-80, 20% Cremophor EL, 71% water
[4] = 3 mg/kg PO one hour prior to formalin, solution in 4% DMSO, 5% Tween-80, 20% Cremophor EL, 71% water
[5] = 10 mg/kg PO one hour prior to formalin, solution in 4% DMSO, 5% Tween-80, 20% Cremophor EL, 71% water
[6] = 0.3 mg/kg PO, 20% Cremophor EL, and 71% water
[7] = 1 mg/kg PO, 20% Cremophor EL, and 71% water
[8] = 3 mg/kg PO, 20% Cremophor EL, and 71% water
[9] = group 0.3 mg/kg PO, 20% Cremophor EL, and 71% water
[10] = group 1 mg/kg PO, 20% Cremophor EL, and 71% water
[11] = group 3 mg/kg PO, 20% Cremophor EL, and 71% water
[12] = 10 mg/kg PO, 20% Cremophor EL, and 71% water
[13] = 30 mg/kg PO one hour prior to formalin, solution in 8% DMSO and 92% Labrasol
[14] = 1 mg/kg PO, 25% Cremophor EL, and 66% water
[15] = 3 mg/kg PO, 25% Cremophor EL, and 66% water
[16] = 10 mg/kg PO, 25% Cremophor EL, and 66% water

Row | Structure (SMILES) | Duration (0-2 Minutes) Average [1, 3] [s] | Duration (0-5 Minutes) Average [1, 3] [s] | Duration (0-2 Minutes) Average [1, 4] [s] | Duration (0-5 Minutes) Average [1, 4] [s] | Duration (0-2 Minutes) Average [1, 5] [s] | Duration (0-5 Minutes) Average [1, 5] [s] | Average PWL Post-Treatment [2, 6] | PWL Change [2, 6] [s] | Average PWL Post-Treatment [2, 7] | PWL Change [2, 7] [s] | Average PWL Post-Treatment [2, 8] | PWL Change [2, 8] [s] | Average PWL Post-CFA [2, 9] | Average PWL Post-CFA [2, 10] | Average PWL Post-CFA [2, 11] | IC50 (human TRPA1) [nM] | other results
1 | CC(=O)Cn1c(=O)c2c(ncn2[C@@H](C)C(=O)Nc2cncc(-c3cnc(N4CC5C(C4)C5(F)F)nc3)n2)n(C)c1=O (stereo partly drawn) [Compound 74, (2S)—N-(6-(2-(6,6-difluoro-3-azabicyclo[3.1.0]hexan-3-yl)pyrimidin-5-yl)pyrazin-2-yl)-2-(3-methyl-2,6-dioxo-1-(2-oxopropyl)-2,3-dihydro-1H-purin-7(6H)-yl)propanamide] | 94.8 | 169.0 | 78.3 | 172.9 | 62.3 | 152.6 | 160.9 | 69.9 | 271.3 | 181.0 | 273.2 | 182.3 | 91.1 | 90.4 | 90.9 | 6 | –
2 | Cc1noc(Cn2c(=O)c3c(ncn3[C@@H](C)C(=O)Nc3cccc(-c4cnc(C(F)(F)F)nc4)n3)n(C)c2=O)n1 [Compound 104, (S)-2-(3-methyl-1-((3-methyl-1,2,4-oxadiazol-5-yl)methyl)-2,6-dioxo-2,3-dihydro-1H-purin-7(6H)-yl)-N-(6-(2-(trifluoromethyl)pyrimidin-5-yl)pyridin-2-yl)propanamide] | 98.5 | 167.9 | 70.9 | 140.0 | 56.6 | 128.9 | 190.0 | 84.9 | 295.1 | 190.9 | 281.7 | 176.8 | 105.1 | 104.2 | 104.9 | 15 | –
3 | CCC(=O)Cn1c(=O)c2c(ncn2[C@@H](C)C(=O)Nc2csc(-c3cnc(N4CCC[C@H]4C(F)(F)F)nc3)n2)n(C)c1=O [Compound 18, (S)-2-(3-methyl-2,6-dioxo-1-(2-oxobutyl)-2,3-dihydro-1H-purin-7(6H)-yl)-N-(2-(2-((S)-2-(trifluoromethyl)pyrrolidin-1-yl)pyrimidin-5-yl)thiazol-4-yl)propanamide] | 78.0 | 183.3 | 58.0 | 157.1 | 35.3 | 181.6 | – | – | 246.8 | 149.7 | 233.5 | 136.4 | – | 97.1 | 97.0 | – | Average PWL Post-Treatment [2, 12]: 256.1; PWL Change [2, 12]: 159.1 s; Average PWL Post-CFA ([2]; group 10 mg/kg PO, 20% Cremophor EL, and 71% water): 97.0
4 | CCC(=O)Cn1c(=O)c2c(ncn2[C@@H](C)C(=O)Nc2csc(-c3cnc(N4CC5CC5C4)nc3)n2)n(C)c1=O (stereo partly shown) [Compound 14] | – | – | – | – | – | – | – | – | – | – | – | – | – | – | – | – | Duration (0-2 Minutes) Average [1, 13]: 34.3 s and 39.6 s; Duration (0-5 Minutes) Average [1, 13]: 123.4 s and 160.6 s; Average PWL Post-Treatment [2, 14]: 194.8; PWL Change [2, 14]: 104.2 s; Average PWL Post-Treatment [2, 15]: 180.0; PWL Change [2, 15]: 87.6 s; Average PWL Post-Treatment [2, 16]: 237.4; PWL Change [2, 16]: 146.3 s; Average PWL Post-CFA ([2]; group 1 mg/kg PO, 25% Cremophor EL, and 66% water): 90.3; Average PWL Post-CFA ([2]; group 3 mg/kg PO, 25% Cremophor EL, and 66% water): 92.3; Average PWL Post-CFA ([2]; group 10 mg/kg PO, 25% Cremophor EL, and 66% water): 90.9
5 | COCC(=O)Cn1c(=O)c2c(ncn2[C@@H](C)C(=O)Nc2csc(-c3cnc(N4CC5CC5C4)nc3)n2)n(C)c1=O (stereo partly drawn) [Compound 105, (2S)—N-(2-(2-(3-azabicyclo[3.1.0]hexan-3-yl)pyrimidin-5-yl)thiazol-4-yl)-2-(1-(3-methoxy-2-oxopropyl)-3-methyl-2,6-dioxo-2,3-dihydro-1H-purin-7(6H)-yl)propanamide] | 97.9 | 162.6 | 86.0 | 154.0 | 70.1 | 137.3 | 137.3 | 34.9 | 215.2 | 112.8 | 226.3 | 123.6 | 102.4 | 102.3 | 102.7 | – | –

Reference: US10221177B2 (HYDRA BIOSCIENCES, INC., priority 2014, dated 2019)
